Legend:
[1] = target: Serine/threonine-protein kinase N2 (Homo sapiens) (UniProt Q16513); assay: Inhibition of PRK2 (unknown origin) at 1 uM incubated for 30 mins in presence of [gamma-33P]ATP by multidrop micro reagent based assay relative to control; values are per cent of control
[2] = target: Myosin light chain kinase, smooth muscle (Homo sapiens) (UniProt Q15746); assay: Inhibition of SmMLCK (unknown origin) at 1 uM incubated for 30 mins in presence of [gamma-33P]ATP by multidrop micro reagent based assay relative to control; values are per cent of control
[3] = target: T1, Mitogen-activated protein kinase kinase kinase kinase 2 (Homo sapiens) (UniProt Q12851); assay: Inhibition of GCK (unknown origin) at 1 uM incubated for 30 mins in presence of [gamma-33P]ATP by multidrop micro reagent based assay relative to control
T1 sequence (whole entry): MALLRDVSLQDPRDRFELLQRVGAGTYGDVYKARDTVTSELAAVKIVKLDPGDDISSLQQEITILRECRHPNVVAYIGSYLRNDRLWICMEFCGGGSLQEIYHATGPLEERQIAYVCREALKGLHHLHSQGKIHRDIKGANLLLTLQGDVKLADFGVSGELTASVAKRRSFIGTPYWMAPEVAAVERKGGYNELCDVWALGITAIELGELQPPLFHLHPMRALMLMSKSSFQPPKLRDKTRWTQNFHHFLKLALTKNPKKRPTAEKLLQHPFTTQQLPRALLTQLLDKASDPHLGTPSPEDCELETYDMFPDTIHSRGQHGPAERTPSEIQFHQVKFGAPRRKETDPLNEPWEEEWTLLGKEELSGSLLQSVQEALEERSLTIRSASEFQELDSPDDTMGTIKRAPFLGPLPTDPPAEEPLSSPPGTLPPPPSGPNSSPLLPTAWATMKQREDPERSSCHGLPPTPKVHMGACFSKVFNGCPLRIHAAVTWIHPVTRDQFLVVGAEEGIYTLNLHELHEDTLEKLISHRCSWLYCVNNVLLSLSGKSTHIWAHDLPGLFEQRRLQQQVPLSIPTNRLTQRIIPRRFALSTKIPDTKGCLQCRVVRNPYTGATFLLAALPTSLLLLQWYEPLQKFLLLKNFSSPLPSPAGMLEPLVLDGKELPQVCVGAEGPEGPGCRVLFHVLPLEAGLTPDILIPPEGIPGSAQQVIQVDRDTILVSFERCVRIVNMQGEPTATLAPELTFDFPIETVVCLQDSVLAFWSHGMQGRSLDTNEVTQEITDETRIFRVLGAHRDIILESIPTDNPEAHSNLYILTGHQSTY

[4] = target: T2, Mitogen-activated protein kinase 12 (Homo sapiens) (UniProt P53778); assay: Inhibition of p38gamma MAPK (unknown origin) at 1 uM incubated for 30 mins in presence of [gamma-33P]ATP by multidrop micro reagent based assay relative to control; values are per cent of control
T2 sequence (whole entry): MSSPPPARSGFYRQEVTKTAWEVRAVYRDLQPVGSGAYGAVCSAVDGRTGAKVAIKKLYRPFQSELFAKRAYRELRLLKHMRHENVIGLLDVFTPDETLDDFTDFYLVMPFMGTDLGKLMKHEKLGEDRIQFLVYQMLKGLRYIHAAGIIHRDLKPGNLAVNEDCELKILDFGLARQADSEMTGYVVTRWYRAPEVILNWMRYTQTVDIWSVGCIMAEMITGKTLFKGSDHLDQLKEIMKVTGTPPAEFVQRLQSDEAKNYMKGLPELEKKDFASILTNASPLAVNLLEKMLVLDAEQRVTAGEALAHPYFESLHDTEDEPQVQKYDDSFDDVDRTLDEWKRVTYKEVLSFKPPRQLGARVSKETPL

[5] = target: T3, Serine/threonine-protein kinase STK11 (Homo sapiens) (UniProt Q15831); assay: Inhibition of LKB1 (unknown origin) at 1 uM incubated for 30 mins in presence of [gamma-33P]ATP by multidrop micro reagent based assay relative to control
T3 sequence (whole entry): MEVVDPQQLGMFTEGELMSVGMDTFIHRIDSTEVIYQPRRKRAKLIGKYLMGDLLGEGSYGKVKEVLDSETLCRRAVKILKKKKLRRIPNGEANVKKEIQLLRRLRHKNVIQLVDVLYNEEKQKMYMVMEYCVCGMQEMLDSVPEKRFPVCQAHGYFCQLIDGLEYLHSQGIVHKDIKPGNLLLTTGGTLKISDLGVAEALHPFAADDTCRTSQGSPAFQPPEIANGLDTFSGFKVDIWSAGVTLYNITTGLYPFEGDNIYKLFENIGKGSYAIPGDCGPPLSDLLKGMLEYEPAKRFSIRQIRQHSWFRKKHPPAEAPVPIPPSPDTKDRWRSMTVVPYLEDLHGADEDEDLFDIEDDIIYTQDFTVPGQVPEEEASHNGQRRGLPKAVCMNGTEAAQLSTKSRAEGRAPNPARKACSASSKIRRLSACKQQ

[6] = target: Serine/threonine-protein kinase PAK 5 (Homo sapiens) (UniProt Q9P286); assay: Inhibition of PAK5 (unknown origin) at 1 uM incubated for 30 mins in presence of [gamma-33P]ATP by multidrop micro reagent based assay relative to control; values are per cent of control
[7] = target: MAP/microtubule affinity-regulating kinase 3 (Homo sapiens) (UniProt P27448); assay: Inhibition of MARK3 (unknown origin) at 1 uM incubated for 30 mins in presence of [gamma-33P]ATP by multidrop micro reagent based assay relative to control; values are per cent of control
MAP/microtubule affinity-regulating kinase 3 (Homo sapiens), sequence (P27448 whole entry, looked up): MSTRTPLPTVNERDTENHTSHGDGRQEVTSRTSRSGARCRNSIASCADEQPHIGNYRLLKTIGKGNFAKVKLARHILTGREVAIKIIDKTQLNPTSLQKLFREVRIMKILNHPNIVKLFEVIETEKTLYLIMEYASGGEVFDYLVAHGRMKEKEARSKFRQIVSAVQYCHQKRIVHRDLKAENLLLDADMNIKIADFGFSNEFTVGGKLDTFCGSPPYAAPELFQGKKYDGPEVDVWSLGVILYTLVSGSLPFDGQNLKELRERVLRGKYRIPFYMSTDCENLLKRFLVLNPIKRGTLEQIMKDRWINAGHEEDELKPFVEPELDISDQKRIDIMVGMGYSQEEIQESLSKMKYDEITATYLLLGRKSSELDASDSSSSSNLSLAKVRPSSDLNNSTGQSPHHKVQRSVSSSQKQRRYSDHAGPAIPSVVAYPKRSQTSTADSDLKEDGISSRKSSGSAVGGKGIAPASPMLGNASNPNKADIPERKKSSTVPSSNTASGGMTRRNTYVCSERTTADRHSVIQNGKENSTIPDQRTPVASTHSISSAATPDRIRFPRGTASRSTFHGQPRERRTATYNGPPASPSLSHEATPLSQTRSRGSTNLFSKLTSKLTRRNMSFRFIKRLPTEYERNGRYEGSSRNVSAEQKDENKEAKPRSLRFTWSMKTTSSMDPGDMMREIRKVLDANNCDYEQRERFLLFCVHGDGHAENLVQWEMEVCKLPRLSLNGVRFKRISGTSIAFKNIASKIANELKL

Serine/threonine-protein kinase PAK 5 (Homo sapiens), sequence (Q9P286 whole entry, looked up): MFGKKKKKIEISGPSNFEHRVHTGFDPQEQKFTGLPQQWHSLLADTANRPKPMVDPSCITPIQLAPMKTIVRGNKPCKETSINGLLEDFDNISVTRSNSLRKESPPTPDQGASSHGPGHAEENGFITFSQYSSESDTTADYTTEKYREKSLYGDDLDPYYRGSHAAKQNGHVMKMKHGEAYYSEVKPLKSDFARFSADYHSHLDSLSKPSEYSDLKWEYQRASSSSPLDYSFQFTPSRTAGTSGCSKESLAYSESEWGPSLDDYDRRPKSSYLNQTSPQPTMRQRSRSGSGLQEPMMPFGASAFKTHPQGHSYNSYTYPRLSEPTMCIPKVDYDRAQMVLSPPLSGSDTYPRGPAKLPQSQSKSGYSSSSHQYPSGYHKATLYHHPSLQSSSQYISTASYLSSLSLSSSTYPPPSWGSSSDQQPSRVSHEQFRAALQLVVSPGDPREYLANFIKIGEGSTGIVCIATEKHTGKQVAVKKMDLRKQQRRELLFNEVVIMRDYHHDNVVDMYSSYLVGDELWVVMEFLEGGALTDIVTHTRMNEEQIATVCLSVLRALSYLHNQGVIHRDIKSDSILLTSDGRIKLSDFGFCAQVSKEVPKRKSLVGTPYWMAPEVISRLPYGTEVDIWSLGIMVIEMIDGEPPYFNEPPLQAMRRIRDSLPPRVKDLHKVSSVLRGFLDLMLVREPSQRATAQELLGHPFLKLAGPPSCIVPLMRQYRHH
Myosin light chain kinase, smooth muscle (Homo sapiens), sequence (Q15746 whole entry): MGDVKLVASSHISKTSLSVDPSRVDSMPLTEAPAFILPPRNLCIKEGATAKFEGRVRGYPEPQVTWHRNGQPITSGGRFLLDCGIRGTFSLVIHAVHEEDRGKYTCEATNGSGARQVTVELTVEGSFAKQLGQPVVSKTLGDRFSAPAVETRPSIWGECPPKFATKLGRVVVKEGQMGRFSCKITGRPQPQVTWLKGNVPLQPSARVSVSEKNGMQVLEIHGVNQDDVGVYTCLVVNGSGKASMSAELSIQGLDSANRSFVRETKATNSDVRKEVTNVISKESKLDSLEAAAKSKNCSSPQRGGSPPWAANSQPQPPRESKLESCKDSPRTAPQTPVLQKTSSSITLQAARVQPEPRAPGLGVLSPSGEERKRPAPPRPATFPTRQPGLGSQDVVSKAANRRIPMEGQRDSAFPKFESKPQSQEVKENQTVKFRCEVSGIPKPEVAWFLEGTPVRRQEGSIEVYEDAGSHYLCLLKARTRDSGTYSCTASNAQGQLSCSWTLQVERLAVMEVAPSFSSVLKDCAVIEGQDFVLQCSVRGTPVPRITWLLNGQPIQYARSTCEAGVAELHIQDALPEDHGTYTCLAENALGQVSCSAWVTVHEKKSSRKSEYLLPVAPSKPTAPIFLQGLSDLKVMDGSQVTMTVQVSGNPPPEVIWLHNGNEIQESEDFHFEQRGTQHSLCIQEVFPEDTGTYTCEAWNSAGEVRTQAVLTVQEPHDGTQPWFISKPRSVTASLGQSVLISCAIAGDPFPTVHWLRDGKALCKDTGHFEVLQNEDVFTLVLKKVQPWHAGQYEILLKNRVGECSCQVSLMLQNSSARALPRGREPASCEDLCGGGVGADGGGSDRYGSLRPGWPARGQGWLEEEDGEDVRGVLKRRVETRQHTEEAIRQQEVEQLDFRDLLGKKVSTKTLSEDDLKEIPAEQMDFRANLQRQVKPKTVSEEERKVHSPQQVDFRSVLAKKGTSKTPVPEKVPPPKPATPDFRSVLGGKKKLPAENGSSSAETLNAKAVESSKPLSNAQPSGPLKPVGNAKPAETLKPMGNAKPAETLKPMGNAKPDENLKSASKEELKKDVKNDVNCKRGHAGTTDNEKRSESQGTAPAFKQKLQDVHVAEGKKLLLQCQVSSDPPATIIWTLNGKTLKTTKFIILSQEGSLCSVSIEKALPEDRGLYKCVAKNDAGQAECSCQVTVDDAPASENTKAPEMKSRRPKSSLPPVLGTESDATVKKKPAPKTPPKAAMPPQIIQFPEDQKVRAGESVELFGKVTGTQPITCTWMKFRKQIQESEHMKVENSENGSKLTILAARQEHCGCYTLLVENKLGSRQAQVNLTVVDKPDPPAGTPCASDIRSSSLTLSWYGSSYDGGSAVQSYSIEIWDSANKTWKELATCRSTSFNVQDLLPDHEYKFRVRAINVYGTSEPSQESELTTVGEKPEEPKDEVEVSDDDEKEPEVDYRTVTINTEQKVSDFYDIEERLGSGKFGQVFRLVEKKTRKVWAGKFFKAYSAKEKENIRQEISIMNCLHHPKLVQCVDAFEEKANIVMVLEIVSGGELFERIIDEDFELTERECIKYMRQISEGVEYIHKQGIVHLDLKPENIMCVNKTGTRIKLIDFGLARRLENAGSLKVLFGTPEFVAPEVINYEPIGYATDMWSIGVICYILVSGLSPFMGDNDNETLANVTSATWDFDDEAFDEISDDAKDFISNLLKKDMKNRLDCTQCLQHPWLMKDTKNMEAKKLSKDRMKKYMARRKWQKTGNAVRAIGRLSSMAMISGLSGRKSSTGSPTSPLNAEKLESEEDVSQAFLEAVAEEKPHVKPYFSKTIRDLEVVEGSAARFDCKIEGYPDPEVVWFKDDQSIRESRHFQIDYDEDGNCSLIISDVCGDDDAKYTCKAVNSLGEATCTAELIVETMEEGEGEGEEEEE
Serine/threonine-protein kinase N2 (Homo sapiens), sequence (Q16513 whole entry, looked up): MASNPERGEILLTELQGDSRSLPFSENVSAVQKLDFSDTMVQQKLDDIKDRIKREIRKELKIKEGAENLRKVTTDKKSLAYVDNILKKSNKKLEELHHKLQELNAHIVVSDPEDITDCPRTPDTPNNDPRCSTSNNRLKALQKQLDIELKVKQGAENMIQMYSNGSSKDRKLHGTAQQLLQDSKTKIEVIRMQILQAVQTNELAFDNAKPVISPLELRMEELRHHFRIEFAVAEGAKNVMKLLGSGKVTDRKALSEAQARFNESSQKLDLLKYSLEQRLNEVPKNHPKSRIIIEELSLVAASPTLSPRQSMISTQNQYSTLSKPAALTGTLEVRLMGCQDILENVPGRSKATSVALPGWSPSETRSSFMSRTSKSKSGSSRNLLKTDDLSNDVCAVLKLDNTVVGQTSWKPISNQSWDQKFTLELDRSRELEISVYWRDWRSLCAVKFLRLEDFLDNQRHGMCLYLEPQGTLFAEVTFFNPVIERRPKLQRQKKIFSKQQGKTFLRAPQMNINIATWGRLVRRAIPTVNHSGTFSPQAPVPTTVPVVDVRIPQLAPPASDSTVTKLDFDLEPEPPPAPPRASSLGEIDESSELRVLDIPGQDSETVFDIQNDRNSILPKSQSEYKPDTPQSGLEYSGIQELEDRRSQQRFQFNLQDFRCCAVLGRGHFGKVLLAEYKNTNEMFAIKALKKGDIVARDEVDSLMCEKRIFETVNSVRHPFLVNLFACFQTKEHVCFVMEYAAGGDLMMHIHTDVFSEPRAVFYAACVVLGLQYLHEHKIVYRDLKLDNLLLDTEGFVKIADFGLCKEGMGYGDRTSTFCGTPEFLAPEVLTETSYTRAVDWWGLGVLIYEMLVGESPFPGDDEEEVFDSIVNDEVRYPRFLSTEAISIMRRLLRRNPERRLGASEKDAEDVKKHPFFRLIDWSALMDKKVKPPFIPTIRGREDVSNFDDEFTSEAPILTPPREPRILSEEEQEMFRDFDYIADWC

Row | SMILES | residual activity [1] [%] | residual activity [2] [%] | residual activity [3] [%] | residual activity [4] [%] | inhibition [5] [%] | residual activity [6] [%] | residual activity [7] [%]
1 | CCN(CC)CCNC(=O)c1c(C)[nH]c(/C=C2\C(=O)Nc3ccc(F)cc32)c1C | 81 | – | – | – | – | – | –
2 | CC1=C(C(=O)Nc2cc3cn[nH]c3cc2F)C(c2ccc(C(F)(F)F)cc2)CC(=O)N1 (configuration not stated) | 40 | 73 | 97 | 112 | 58 | 107 | 98
3 | Cc1cncc2cccc(S(=O)(=O)N3CCCNC[C@@H]3C)c12 | 70 | 96 | 56 | 101 | 50 | 100 | 56
4 | CCn1c(-c2nonc2N)nc2cnc(Oc3cccc(NC(=O)c4ccc(OCCN5CCOCC5)cc4)c3)cc21 [GSK-269962A] | 2 | 65 | 78 | 72 | 58 | 102 | 67

From ChEMBL document CHEMBL5705888, “Substrate specificity and inhibitors of LRRK2, a protein kinase mutated in Parkinson's disease” (Biochem J, 2009)
